Results reported in patent US20230321067A1, “DOSING REGIMEN COMPRISING 3-(1-OXOISOINDOLIN-2-YL)PIPERIDINE-2,6-DIONE DERIVATIVES” (Novartis AG, priority 2020, published 2023).

What was measured:
IKZF2 [1] = assay: Degradation of IKZF2 in primary PBMCs, cynomolgus monkey (FIG. 3); assay type: cell-based
Excerpt: FIG. 3. is a bar graph showing the degradation of IKZF2 in primary PBMCs obtained from rabbit, dog, pig, cynomolgus monkey and human, and in primary splenocytes of mouse and rat and treated with Compound I-57.

primary human Tregs = assay: Suppression of Teff proliferation by in vitro expanded primary human Tregs; assay type: cell-based
TMEM97 = target: T1, TMEM97 (Homo sapiens, UniProt Q5BJF2); assay: Whole cell proteomic analysis in 293T cells: TMEM97; assay type: cell-based
T1 construct: endogenous in cells; host or cells: 293T
Procedure: Other potential degradation targets of I-57 were evaluated in 293T cells using whole cell proteomic analysis. […] Subsequent analyses have confirmed that FIZ1 is degraded by about 50% at a 10 μM concentration of I-57 ([I-57 Investigator's Brochure]). […] FIZ1 is expressed in the neural retina where it transcriptionally represses the differentiation of photoreceptors. FIZ1 is also expressed in non-ocular tissues with unknown function.

[2] = Repeated oral dose PK in MDA-MB231 xenograft human PBMC adoptive transfer model; assay type: in vivo, NSG mice; details: hPBMC AdT mouse
Procedure: The PK/PD relationship of I-57 was examined in the hPBMC AdT model system. Human PBMCs were adoptively transferred into female NSG mice harboring established MDA-MB231 xenografts (FIG. 6). This model was selected based on the observation that IKZF2 positive Tregs (CD4+FOXP3+) were readily identifiable in peripheral blood and infiltrated in the tumor xenografts.
Mice were administered I-57 daily for 14 consecutive days at the doses shown. Longitudinal I-57 plasma concentrations were assessed (Table 14).

[3] = In vivo non-clinical PK profile, all species tested; parameters: species or system mouse, rat, dog and cynomolgus monkey
Procedure: (§1) The in vivo non-clinical PK profile of I-57 was investigated in mouse, rat, dog and cynomolgus monkey using I-57 free base. […] After p.o. administration, the absorption of I-57 was rapid with peak blood concentration (Tmax) occurring between 1 and 4 hours. […] In high dose PK and toxicology studies with I-57 the exposures in mouse, rat and monkey increased with dose.

[4] = In vivo non-clinical PK, dog
Procedure: as §1
(§2) The binding to plasma protein of I-57 in vitro was moderate in all species, with an observed difference between rodents (73% in mouse, 76% in rat) and non-rodents (52% in dog and monkey, 54% in human). Blood-to-plasma ratios were in the range of 0.7-1.8 (human 1.1-1.3). […] Based on results with non-radiolabeled I-57 in the dog, a significant amount of unchanged I-57 was renally eliminated (˜20% of dose).

plasma protein = assay: Plasma protein binding in vitro, mouse; assay type: in vitro ADME
Excerpt: as §2

[5] = Blood-to-plasma ratio, across species; assay type: in vitro ADME
Excerpt: as §2

CYP3A4 = CYP3A4 (Homo sapiens, UniProt P08684); assay: Enzyme phenotyping with human recombinant CYPs; assay type: in vitro ADME; details: human recombinant CYPs in vitro; preliminary assessment
Procedure: In vivo in the dog, very minor amounts of the N-dealkylation product and products derived from hydrolysis of the glutarimide moiety were detected in plasma. While the contribution of CYP-mediated oxidative metabolism to systemic clearance is unknown, a preliminary assessment of the enzymes involved was conducted using human recombinant CYPs in vitro.

CYP2D6 [6] = target: T2, CYP2D6 (Homo sapiens, UniProt P10635); assay: CYP inhibition: CYP2D6; assay type: in vitro ADME
CYP1A2 = CYP1A2 (Homo sapiens, UniProt P05177); assay: Time-dependent CYP inhibition: CYP1A2; assay type: in vitro ADME; details: I-57 concentrations of up to 100 μM
CYP2C8 = CYP2C8 (Homo sapiens, UniProt P10632); assay: Time-dependent CYP inhibition: CYP2C8; assay type: in vitro ADME; details: I-57 concentrations of up to 100 μM
CYP2D6 [7] = target: T2, CYP2D6; assay: Time-dependent CYP inhibition: CYP2D6; assay type: in vitro ADME; details: I-57 concentrations of up to 100 μM
[8] = ECG (QTc) in monkeys, single dose and 4-week GLP repeat dose study; assay type: in vivo, monkey
Procedure: The risk of possible QTc interval prolongation at the starting dose is therefore considered low. QT prolongation may become clinically significant during escalation but are not anticipated to be dose limiting until doses at or above 640 mg. Monitoring and other measures to mitigate potential risk of arrhythmia is addressed in Example 3 below.

IKZF2 [9] = target: IKZF2 (Homo sapiens, UniProt Q96SW2+Q9UKS7); assay: Multi-dose PK/PD study in human PBMC adoptive transfer mouse model harboring MDA-MB231 xenografts: IKZF2 expression in human CD4+FOXP3+ regulatory T cells (FIG. 6, 7); assay type: in vivo; parameters: endogenous in cells; host or cells: primary human PBMCs; details: 14 daily oral doses of 0.3, 1, 3 and 30 mg/kg, hPBMC AdT mouse model
Procedure: FIG. 6 is a pictorial representation of the multi-dose PK/PD study design in the human PBMC adoptive transfer mouse model harboring MDA-MB231 xenografts. Fourteen consecutive daily doses of Compound I-57 was administered at 0.3 mg/kg, 1 mg/kg, 3 mg/kg or 30 mg/kg.
FIG. 7 is a graph showing the change in the IKZF2 expression in human CD4+FOXP3+ regulatory T cells isolated from MDA-MB231 tumor xenografts (Tumor) or blood (Periphery) following 14 daily oral doses of 0.3, 1, 3 and 30 mg/kg Compound I-57 administered to the hPBMC AdT model.

[10] = female, NSG, mouse, plasma, po, 0.3 mg/kg, unbound, post 1st dose, p.o. 0.3 mg/kg daily
[11] = female, NSG, mouse, plasma, po, 0.3 mg/kg, unbound, post 13th dose, p.o. 0.3 mg/kg daily
[12] = female, NSG, mouse, plasma, po, 1 mg/kg, unbound, post 1st dose, p.o. 1 mg/kg daily
[13] = female, NSG, mouse, plasma, po, 1 mg/kg, unbound, post 13th dose, p.o. 1 mg/kg daily
[14] = female, NSG, mouse, plasma, po, 3 mg/kg, unbound, post 1st dose, p.o. 3 mg/kg daily
[15] = female, NSG, mouse, plasma, po, 3 mg/kg, unbound, post 13th dose, p.o. 3 mg/kg daily
[16] = female, NSG, mouse, plasma, po, 30 mg/kg, unbound, post 1st dose, p.o. 30 mg/kg daily
[17] = female, NSG, mouse, plasma, po, 30 mg/kg, unbound, post 13th dose, p.o. 30 mg/kg daily
[18] = i.v. administration, all species tested, I-57 free base

T2 sequence (P10635 whole entry): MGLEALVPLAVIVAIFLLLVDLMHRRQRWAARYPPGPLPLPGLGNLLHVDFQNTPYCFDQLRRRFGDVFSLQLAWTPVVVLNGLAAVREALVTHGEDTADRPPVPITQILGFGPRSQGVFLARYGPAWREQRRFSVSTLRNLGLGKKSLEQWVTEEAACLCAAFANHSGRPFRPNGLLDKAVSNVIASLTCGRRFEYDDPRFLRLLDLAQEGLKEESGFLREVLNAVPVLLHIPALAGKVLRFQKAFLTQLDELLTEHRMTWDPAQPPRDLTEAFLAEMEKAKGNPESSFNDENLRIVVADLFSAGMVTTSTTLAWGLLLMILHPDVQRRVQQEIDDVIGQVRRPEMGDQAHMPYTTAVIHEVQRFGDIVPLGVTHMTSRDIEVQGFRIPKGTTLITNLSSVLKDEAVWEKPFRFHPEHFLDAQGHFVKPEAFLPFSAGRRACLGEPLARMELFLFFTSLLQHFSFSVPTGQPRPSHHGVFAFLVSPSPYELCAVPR
Chain of IKZF2 (Homo sapiens, UniProt Q96SW2+Q9UKS7) (Q9UKS7 whole entry): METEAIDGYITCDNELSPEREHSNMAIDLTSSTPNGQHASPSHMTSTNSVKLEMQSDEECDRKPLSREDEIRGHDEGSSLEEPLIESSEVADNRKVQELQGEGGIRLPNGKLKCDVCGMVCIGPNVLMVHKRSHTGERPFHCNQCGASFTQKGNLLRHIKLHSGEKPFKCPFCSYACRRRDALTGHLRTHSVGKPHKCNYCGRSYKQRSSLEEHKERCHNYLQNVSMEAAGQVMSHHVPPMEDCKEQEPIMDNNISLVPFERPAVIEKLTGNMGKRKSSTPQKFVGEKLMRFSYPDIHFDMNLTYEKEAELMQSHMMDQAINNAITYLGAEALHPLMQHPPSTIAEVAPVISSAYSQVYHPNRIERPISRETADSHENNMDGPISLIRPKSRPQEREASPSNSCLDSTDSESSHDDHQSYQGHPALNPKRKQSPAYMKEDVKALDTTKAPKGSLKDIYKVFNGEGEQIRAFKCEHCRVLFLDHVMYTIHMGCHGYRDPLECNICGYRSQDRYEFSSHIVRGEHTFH
Chain of IKZF2 (Homo sapiens, UniProt Q96SW2+Q9UKS7) (Q96SW2 whole entry): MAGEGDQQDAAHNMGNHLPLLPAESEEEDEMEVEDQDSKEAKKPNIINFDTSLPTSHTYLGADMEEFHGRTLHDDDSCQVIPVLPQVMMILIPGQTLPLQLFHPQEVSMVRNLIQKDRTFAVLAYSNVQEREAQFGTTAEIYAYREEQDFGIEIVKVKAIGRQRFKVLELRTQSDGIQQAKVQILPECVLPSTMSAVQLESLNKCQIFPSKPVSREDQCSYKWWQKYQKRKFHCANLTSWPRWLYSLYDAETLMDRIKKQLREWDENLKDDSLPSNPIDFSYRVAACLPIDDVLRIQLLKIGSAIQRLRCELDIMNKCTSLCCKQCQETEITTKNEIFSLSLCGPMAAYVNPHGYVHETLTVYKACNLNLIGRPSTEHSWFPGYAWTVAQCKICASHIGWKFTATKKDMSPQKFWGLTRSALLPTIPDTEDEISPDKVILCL
Chain of IKZF2 (Homo sapiens, UniProt Q96SW2+Q9UKS7) (Q16531 whole entry partner): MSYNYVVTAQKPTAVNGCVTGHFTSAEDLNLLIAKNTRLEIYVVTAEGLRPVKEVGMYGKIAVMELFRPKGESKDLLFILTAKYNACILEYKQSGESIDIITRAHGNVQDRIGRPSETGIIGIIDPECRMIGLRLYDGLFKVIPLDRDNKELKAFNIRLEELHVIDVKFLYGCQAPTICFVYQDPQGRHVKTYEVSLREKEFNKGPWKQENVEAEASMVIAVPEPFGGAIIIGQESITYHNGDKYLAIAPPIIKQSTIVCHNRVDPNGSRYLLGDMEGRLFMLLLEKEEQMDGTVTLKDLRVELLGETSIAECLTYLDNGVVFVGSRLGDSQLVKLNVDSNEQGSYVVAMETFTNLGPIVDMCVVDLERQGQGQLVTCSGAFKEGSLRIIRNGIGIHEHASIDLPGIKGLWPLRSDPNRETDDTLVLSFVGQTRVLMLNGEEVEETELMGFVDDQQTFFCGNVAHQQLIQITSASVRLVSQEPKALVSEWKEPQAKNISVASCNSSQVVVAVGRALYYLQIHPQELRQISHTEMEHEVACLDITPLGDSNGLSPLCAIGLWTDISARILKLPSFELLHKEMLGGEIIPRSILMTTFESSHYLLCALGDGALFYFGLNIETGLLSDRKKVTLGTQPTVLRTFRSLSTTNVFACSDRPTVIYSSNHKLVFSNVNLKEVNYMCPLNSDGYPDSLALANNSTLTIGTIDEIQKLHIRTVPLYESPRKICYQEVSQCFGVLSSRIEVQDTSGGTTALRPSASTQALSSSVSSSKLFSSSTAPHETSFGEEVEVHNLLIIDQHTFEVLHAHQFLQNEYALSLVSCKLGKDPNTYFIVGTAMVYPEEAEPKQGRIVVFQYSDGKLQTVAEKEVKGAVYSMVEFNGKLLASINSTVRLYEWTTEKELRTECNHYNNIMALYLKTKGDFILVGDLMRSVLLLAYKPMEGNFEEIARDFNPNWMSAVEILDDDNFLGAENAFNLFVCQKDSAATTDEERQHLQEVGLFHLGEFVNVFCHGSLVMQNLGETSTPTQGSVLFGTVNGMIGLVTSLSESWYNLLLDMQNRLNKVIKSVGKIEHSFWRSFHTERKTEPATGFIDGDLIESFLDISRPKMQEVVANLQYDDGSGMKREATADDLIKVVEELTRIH
Chain of CYP2C8 (P10632 whole entry): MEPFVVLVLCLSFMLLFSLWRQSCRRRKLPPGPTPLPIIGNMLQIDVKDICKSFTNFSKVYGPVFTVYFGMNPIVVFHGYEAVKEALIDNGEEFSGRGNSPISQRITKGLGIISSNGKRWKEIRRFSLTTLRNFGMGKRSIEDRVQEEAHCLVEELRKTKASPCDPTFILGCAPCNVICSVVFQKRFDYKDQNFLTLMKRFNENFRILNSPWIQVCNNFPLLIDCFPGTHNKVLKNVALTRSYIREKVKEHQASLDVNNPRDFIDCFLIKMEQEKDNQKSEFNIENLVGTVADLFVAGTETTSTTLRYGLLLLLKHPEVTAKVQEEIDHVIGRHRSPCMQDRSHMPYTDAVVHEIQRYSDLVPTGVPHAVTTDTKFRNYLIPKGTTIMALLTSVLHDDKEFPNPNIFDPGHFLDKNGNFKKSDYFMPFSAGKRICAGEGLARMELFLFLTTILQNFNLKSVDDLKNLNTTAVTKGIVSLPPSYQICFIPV
T1 sequence (Q5BJF2 whole entry): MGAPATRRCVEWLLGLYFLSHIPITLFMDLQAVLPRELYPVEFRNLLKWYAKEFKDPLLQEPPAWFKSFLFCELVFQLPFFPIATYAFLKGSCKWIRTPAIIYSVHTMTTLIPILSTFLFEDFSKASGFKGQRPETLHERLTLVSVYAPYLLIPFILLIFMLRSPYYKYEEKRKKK
Chain of CYP1A2 (P05177 whole entry): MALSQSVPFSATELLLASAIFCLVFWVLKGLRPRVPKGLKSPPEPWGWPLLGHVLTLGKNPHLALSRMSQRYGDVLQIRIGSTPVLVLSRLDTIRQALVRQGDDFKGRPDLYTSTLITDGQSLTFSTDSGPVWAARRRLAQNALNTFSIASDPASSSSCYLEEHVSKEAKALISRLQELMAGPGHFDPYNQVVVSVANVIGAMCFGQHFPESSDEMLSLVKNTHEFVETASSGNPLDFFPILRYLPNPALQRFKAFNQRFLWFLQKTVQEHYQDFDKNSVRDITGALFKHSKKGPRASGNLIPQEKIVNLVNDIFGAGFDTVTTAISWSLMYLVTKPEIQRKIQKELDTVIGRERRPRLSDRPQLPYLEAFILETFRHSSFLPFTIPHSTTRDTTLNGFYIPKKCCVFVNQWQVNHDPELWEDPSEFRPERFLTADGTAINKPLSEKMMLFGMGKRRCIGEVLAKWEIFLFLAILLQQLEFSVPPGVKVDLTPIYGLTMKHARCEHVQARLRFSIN
Chain of CYP3A4 (P08684 whole entry): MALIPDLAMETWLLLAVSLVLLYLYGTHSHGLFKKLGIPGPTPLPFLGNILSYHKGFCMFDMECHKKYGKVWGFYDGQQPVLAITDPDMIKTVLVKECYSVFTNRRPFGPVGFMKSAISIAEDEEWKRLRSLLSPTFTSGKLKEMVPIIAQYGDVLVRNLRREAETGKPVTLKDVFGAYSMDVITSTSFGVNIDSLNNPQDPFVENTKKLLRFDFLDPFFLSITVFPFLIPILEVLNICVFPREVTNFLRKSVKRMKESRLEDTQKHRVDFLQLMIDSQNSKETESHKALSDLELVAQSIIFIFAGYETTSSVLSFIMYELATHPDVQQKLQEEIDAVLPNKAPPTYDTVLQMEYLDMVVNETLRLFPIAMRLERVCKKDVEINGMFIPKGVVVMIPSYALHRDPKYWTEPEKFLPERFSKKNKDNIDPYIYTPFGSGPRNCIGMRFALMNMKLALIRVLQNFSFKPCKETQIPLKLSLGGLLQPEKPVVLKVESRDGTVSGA

O=C1CCC(N2Cc3cc(C4CCN(Cc5ccccc5)CC4)ccc3C2=O)C(=O)N1 (centres unmarked) [Compound I-57, 3-(5-(1-benzylpiperidin-4-yl)-1-oxoisoindolin-2-yl)piperidine-2,6-dione]
degradation of IKZF2 (IKZF2 [1]): degradation was observed | IKZF2 protein level in Treg cells (primary human Tregs; primary human Tregs expanded in vitro): reduced proportionally to the I-57 dose | capacity of Tregs to suppress Teff proliferation (primary human Tregs; primary human Tregs expanded in vitro in the presence of I-57): reduced capacity to suppress Teff proliferation | degradation of TMEM97 (TMEM97): degraded | AUC(0-inf) [2, 10]: 7.1 ng·h/mL | Cmax [2, 10]: 2.9 ng/mL | AUC(0-inf) [2, 11]: 7.5 ng·h/mL | Cmax [2, 11]: 1.1 ng/mL | AUC(0-inf) [2, 12]: 30 ng·h/mL | Cmax [2, 12]: 8.8 ng/mL | AUC(0-inf) [2, 13]: 20 ng·h/mL | Cmax at 13 days [2, 13]: 4.6 ng/mL | AUC(0-inf) [2, 14]: 157 ng·h/mL | Cmax [2, 14]: 53 ng/mL | AUC(0-inf) [2, 15]: 92 ng·h/mL | Cmax [2, 15]: 27 ng/mL | AUC(0-inf) [2, 16]: 3470 ng·h/mL | Cmax [2, 16]: 1250 ng/mL | AUC(0-inf) [2, 17]: 4270 ng·h/mL | Cmax [2, 17]: 1300 ng/mL | dose proportionality of AUC and Cmax ([2]; between 3 and 30 mg/kg): over-dose proportional increase | change in exposure by repeated dosing ([2]; daily dosing): No significant increase in exposure | dose proportionality of AUC and Cmax ([2]; from 0.3 to 3 mg/kg): dose proportional increase | blood clearance (CL) [3, 18]: low to moderate | terminal half-life (T½) [3, 18]: moderate | volume of distribution (Vss) [3, 18]: moderate to high | Tmax ([3]; mouse, rat, dog, cynomolgus monkey, blood, po, p.o. administration, read-out: peak blood concentration (Tmax)): 1 to 4 h | bioavailability ([4]; blood, po): 91% | unchanged I-57 renally eliminated ([4]; non-radiolabeled I-57): ~20 % of dose | binding to plasma protein (plasma protein): 73% | blood plasma ratio [5]: 0.7 to 1.8 | CYP enzyme mediating oxidative metabolism (CYP3A4): CYP3A4 was found to primarily mediate these reactions | IC50 (CYP2D6 [6]): ~65 µM | time-dependent inhibition of CYP1A2 (CYP1A2): no apparent time-dependent inhibition | time-dependent inhibition of CYP2C8 (CYP2C8): no apparent time-dependent inhibition | time-dependent inhibition of CYP2D6 (CYP2D6 [7]): no apparent time-dependent inhibition | cardiac electrical instability or wave abnormality [8]: No cardiac electrical instability or wave abnormality was observed | QT effects ([8]; 3 mg/kg): no QT effects were noted | free Cmax in monkeys at 3 mg/kg relative to free Cmax predicted at the clinical starting dose of 20 mg ([8]; 3 mg/kg): ~8.4 times | time of highest magnitude of the QTc effect ([8]; coinciding with Tmax): 0.5 to 5.5 h | increase in QTc interval ([8]; doses >10 mg/kg, single dose and 4-week GLP repeat dose study): at least 30 mSec | genotoxic potential (Genotoxic potential): no genotoxic or phototoxic potential | IKZF2 degradation (reduction of the percentage of IKZF2 positive Tregs) (IKZF2 [9]; peripheral blood): robust dose and exposure-dependent IKZF2 degradation | IKZF2 degradation (reduction of the percentage of IKZF2 positive Tregs) (IKZF2 [9]; tumor (MDA-MB231 xenografts)): robust dose and exposure-dependent IKZF2 degradation
